Experimental data taken from patent US20210188763A1, “COMPOUNDS AND METHODS FOR HEMATOPOIETIC REGENERATION” (The Regents of the University of California, priority 2017, published 2021).

Experiments:
Rac1 [1] = assay: Rac1 activation assay (G-LISA); format: cell-based; conditions: cells incubated 2 minutes at 1 and 10 μg/mL
Experimental: Cell cultures were incubated with each tested compound for 2 minutes at concentrations of 1 and 10 μg/mL, after which the cells were tested for Rac1 activation using a G-LISA activation assay. The cells were lysed and the lysates introduced into wells containing Rac-GTP-binding protein, then sequentially incubated with anti-Rac1 antibody and a horseradish peroxidase-linked secondary antibody. The amount of horseradish peroxidase was then quantitated to evaluate the Rac1 activation potency of each compound studied.

[2] = test system: hematopoietic colony formation; assay: Hematopoietic colony formation (CFC assay); format: cell-based
Experimental: CFC assays (colony-forming unit-granulocyte monocyte (CFU-GM), burst-forming unit-erythroid (BFU-E), and colony-forming unit-granulocyte erythroid monocyte megakaryocyte (CFU-GEMM) were performed using MethoCult GF M3434 (Stemcell Technologies), as we have previously described^1,5. For all in vitro assays, BM CD34^−KSL cells, KSL cells, and Lin cells were cultured in TSF media (IMDM, 10% FBS, 1% pen-strep, 20 ng/mL recombinant mouse Thrombopoietin (TPO), 125 ng/mL recombinant mouse Stem Cell Factor (SCF), 50 ng/mL recombinant mouse Flt3 ligand) and treated as described. Recombinant mouse SCF, Flt-3 ligand, and TPO were purchased from R&D Systems. For competitive repopulation assays, BM cells were isolated from donor 10-12 week old female CD45.2^+ mice. Recipient 10 week old female CD45.1^+ B6.SJL mice were irradiated with 950 cGy TBI using a Cs137 irradiator, and donor BM cells were administered via tail vein injection along with a competing dose of 1×10^5 non-irradiated host BM cells. Multilineage donor hematopoietic cell engraftment was measured in the PB by flow cytometry.

irradiated mice = assay: Survival and HSC regeneration of irradiated mice; format: in vivo; conditions: for Survival of irradiated mice: lethal dose irradiation (750 cGy)
From the text: (§1) A) CFU-GEMMs produced by TSF media vs. TSF+GJ001 (p=0.001). B) Percentage of BM KSL cells expressing Rac1GTP (p=0.008). C) Survival of mice irradiated with 750 cGy followed by treatment with DJ001 or vehicle (p=0.0007). D) % BM KSL cells (blue) and % ckit^+sca-1^−lin^− progenitors (gray) at day +21 in irradiated mice.
10 week old female C57BL/6 mice were irradiated with 750 cGy TBI, which is lethal for approximately 50% of C57BL/6 mice by day +30 (LD50/30), using a Shepherd Cesium-137 irradiator. Twenty four hours post-irradiation, mice were administered daily subcutaneous injections of 5 mg/kg DJ001 (or DJ009) or vehicle in a volume of 100 μL for 10 days. DJ001 injections were prepared in PBS, 0.5% Tween 80, and 10% DMSO. Corresponding vehicle injections contained PBS, 10% DMSO and 0.5% Tween 80. PB complete blood counts were measured using a Hemavet 950 instrument (Drew Scientific) at day +10 post-irradiation. For hematopoietic analysis, BM cells were collected at day +10 post-irradiation. To study whether DJ001 increased survival rates through activation of RAC signaling, the RAC inhibitor, EHT1864 (Selleckchem), was dissolved in PBS and administered intraperitoneally, 40 mg/kg every other day, to 750 cGy irradiated mice until day +10. For DJ009 studies, ten week old female C57BL/6 mice were irradiated with 550 cGy TBI and then given daily subcutaneous injections of 5 mg/kg of DJ009 or vehicle in a volume of 100 μL for 3 days. DJ009 injections were prepared in PBS, 0.5% Tween 80, and 10% DMSO. Vehicle injections contained 10% DMSO and 0.5% Tween 80. At day +3 post 550 cGy irradiation, we collected PB and BM cells for CBCs and hematopoietic analysis. Exemplary results of this assay are depicted in FIG. 8 and FIG. 17.

PTPRS = biological target: T1, PTPRS (Homo sapiens, UniProt Q13332); assay: In vitro phosphatase assay (modified Malachite Green Assay); format: biochemical; conditions: substrate titration of PTPσ; Vmax inhibited, Km constant
T1 construct: The two interacellular catalytic domains (D1D2) of PTPRS were cloned into a pET28a vector; made in house; host or cells: E. coli BL21
T1 sequence (Q13332 1304-1948 limits assumed): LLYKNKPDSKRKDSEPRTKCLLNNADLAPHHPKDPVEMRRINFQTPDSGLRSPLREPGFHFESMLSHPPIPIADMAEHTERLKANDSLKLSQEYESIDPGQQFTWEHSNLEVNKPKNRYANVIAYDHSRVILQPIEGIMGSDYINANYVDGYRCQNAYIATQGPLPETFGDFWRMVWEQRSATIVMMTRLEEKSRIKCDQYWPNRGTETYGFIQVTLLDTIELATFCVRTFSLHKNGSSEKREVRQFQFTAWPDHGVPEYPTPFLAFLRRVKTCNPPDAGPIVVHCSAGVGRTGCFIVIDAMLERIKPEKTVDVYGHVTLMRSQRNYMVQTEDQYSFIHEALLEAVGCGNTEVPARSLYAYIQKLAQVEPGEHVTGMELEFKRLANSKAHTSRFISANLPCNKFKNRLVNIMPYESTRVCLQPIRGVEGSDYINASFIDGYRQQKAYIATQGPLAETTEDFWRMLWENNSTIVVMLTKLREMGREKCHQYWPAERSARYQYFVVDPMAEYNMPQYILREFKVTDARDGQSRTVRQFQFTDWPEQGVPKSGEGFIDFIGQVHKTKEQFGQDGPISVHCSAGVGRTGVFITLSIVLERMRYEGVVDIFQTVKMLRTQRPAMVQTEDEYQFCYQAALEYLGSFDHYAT
Experimental: The two interacellular catalytic domains (D1D2) of PTPRS were cloned into a pET28a vector and overexpressed in E. coli BL21 and purified as described in Jeon T J, et al. Structure of the Catalytic Domain of Protein Tyrosine Phosphatase Sigma in the Sulfenic Acid Form. Molecules and Cells. 2013; 36(1):55-61. doi:10.1007/s10059-013-0033-x. Enzymatic activity of PTPRS was assayed using a modified version of the Malachite Green Assay (described in Lorenz U. Protein Tyrosine Phosphatase Assays. Current protocols in immunology/edited by John E Coligan. [et al]. 2011; CHAPTER: Unit-11.7. doi:10.1002/0471142735.im1107s93) and the Tyrosine Phosphatase Assay Kit (Promega Coorperation). Unless stated otherwise, standard assays were carried out using 50 nM PTPRS protein in 1× Buffer (10 mM Tris, 5 mM MgCl2, 10 mM NaCl, 0.02% Tween) and Tyr Phosphopeptide as substrate (100 uM for FIG. 1 and 50-1200 uM in FIG. 2). […]
For IC50 determination, rates normalized relative to uninhibited controls (DMSO) were plotted against compound concentration and fitted using a four-parameter nonlinear regression curve fit ((y=[(A−D)(1+{xC−1}B)−1]+D), (Prism 6.0, Graphpad Software). For mechanism studies and determination of the enyzme's Km and Vmax, data were analyzed using a nonlinear regression fit according to classical Mechaelis-Menten kinetics model Y=Vmax*X/(Km+X) (Prism 6.0, Graphpad Software).

Rac1 [3] = assay: Rac1 signaling in HSCs (BM KSL cells expressing Rac1GTP); format: cell-based
Experimental: as §1
Intracellular flow cytometric analysis was performed on irradiated (300 cGy) or non-irradiated, sorted KSL cells after treatment with 1 μg/mL DJ001 or control (equal volumes of DMSO) for 24 hours. At 24 hours after irradiation, cells were fixed with 4% PFA for 10 min, followed by permeabilization using 0.25% saponin in PBS. Cells were washed again and stained with antibody at the recommended concentrations for 30 minutes at room temperature. Intracellular antibodies and phospho-flow antibodies used were: FITC-conjugated anti-BCL-XL (Abcam #ab26148), active RAC1-GTP antibody (NewEast Biosciences #26903), and anti-PAK1 (phospho S144)+PAK2 (phospho S141)+PAK3 (phospho S154) antibody (Abcam #ab40795).

| SMILES | Rac1 Activation (Rac1 [1]) | other results |
| --- | --- | --- |
| CC(=O)c1cccc(N/C=C\C(=O)c2ccccc2)c1 [DJ006] | no | – |
| O=C(/C=C\Nc1cccc(F)c1)c1ccccc1 [DJ002] | no | – |
| CN(C)c1cccc(N/C=C\C(=O)c2ccccc2)c1 [DJ008] | no | – |
| Cc1cc(C)cc(N/C=C\C(=O)c2ccccc2)c1 [DJ011] | yes | – |
| O=C(/C=C\Nc1cccc(C(F)(F)F)c1)c1ccccc1 [DJ003] | yes | Hematopoietic colony formation [2]: increases hematopoietic colony formation; Survival of irradiated mice (irradiated mice): improves survival of irradiated mice |
| CCCCN/C=C\C(=O)c1ccccc1 [DJ017] | no | – |
| CC(C)(C)N/C=C\C(=O)c1ccccc1 [DJ019] | no | – |
| O=C(/C=C\Nc1ccccc1)c1ccccc1 [DJ013] | yes | – |
| O=C(/C=C\Nc1cc(F)cc(F)c1)c1ccccc1 [DJ009, (Z)-3-((3,5-difluorophenyl)amino)-1-phenylprop-2-en-1-one] | yes | – |
| O=C(/C=C\Nc1cccc([N+](=O)[O-])c1)c1ccccc1 [DJ001, (Z)-3-((3-nitrophenyl)amino)-1-phenylprop-2-en-1-one] | yes | HSC regeneration in irradiated mice (irradiated mice; irradiated mice): accelerates HSC regeneration; Survival of irradiated mice (irradiated mice): dramatically increases mice survival; Mechanism of inhibition (PTPRS): classical noncompetitive inhibitor; Rac1 signaling in HSCs (Rac1 [3]): activates Rac1 signaling |
| Cc1cccc(N/C=C\C(=O)c2ccccc2)c1 [DJ004] | yes | – |
| O=C(/C=C\Nc1cccc(-c2ccccc2)c1)c1ccccc1 [DJ007] | no | – |
| COc1cc(N/C=C\C(=O)c2ccccc2)cc(OC)c1 [DJ012] | yes | – |
| O=C(/C=C\NCc1ccco1)c1ccccc1 [DJ018] | no | – |
| COc1cccc(N/C=C\C(=O)c2ccccc2)c1 [DJ005] | no | – |
| CN(C)S(=O)(=O)c1cccc(N/C=C\C(=O)c2ccccc2)c1 [DJ016] | no | – |
| O=C(/C=C\Nc1cccc(O)c1)c1ccccc1 [DJ015] | yes | – |
| CC(C)(C)[Si](C)(C)Oc1cccc(N/C=C\C(=O)c2ccccc2)c1 [DJ014] | yes | – |
